The text below walks through data of US5688670A, “Self-modifying RNA molecules and methods of making” (The General Hospital Corporation, priority 1994, dated 1997).

Values joined by “and” are separate entries in the source; they are usually repeats but may differ in a detail not shown here. Equal values may be shown once.

For assay [1], the system named is polynucleotide kinase ribozyme Class IV (Kin.44). As to the kind of experiment: kinetic analysis of auto-thiophosphorylation by kinase ribozyme. It counts as biochemical. To be noted: 6 ATP-γ-S concentrations. As to the method: (§1) Because the random pool initially prepared sampled sequence space very sparsely (there are between 4^100 and 10^60 possible 100-mers, but only approximately 10^16 different molecules in the pool), active molecules are likely to be sub-optimal catalysts. Accordingly, three cycles of mutagenic PCR (before selection cycles 7, 8, and 9) were performed to allow the evolution of improvements in the active molecules. Mutagenic PCR was performed as described by Bartel and Szostak (Science, 61:1411, 1993) and by Cadwell and Joyce (PCR Methods Appl., 28, 1992). Briefly, thirty total cycles of PCR were done at each round to yield - 2% mutagenesis. Reactions of pool RNAs were performed either with trace ATP-γ-^35 S, or with 100 μM ATP-γ-S plus additional trace ATP-γ-^35 S. Dithiothreitol (DTT, 10 mM) was included in the reactions. Reactions were quenched by the addition of one volume of 150 mM EDTA, 20 mM DTT in 95% formamide. Reactions were analyzed by electrophoresis on 10% polyacrylamide/8M urea gels. Quantitation was performed using a PhosphorImager (Molecular Dynamics). A known amount of ATP-γ-^35 S was spotted on the gels as a standard. The combined effect of increasing the stringency and performing mutagenic PCR was to increase the activity of the pool by nearly three orders of magnitude from cycle 6 to cycle 13 (FIG. 4).
(§2) Rates for each clone were determined (as described herein) at 6 different ATP-γ-S concentrations, ranging from 2 μM-[…].

Assay [2] concerns polynucleotide kinase ribozyme Class II (Kin.25). The assay is described as above. The assay is classed as biochemical. Here is the method: as §1, §2
Assay [3] concerns polynucleotide kinase ribozyme Class III (Kin.42). The description is as above. To be noted: 6 ATP-γ-S concentrations. It counts as biochemical. As to the method: as §1, §2
The target in assay [4] is ATP-40-1 RNA (40-nucleotide ATP aptamer). The experiment in a line: isocratic elution from ATP-C8-agarose column. The assay is classed as binding. As to conditions: upper estimate, 5 mM Mg. Here is the method: (§3) Isocratic elution (Arnold et al., J. Chromatography 31:1, 1986) from ATP-agarose and equilibrium gel filtration (Fersht, in Enzyme Structure and Mechanism p. 186-188, Freeman, New York, 1985) was used to measure the dissociation constant for the RNA-ATP complex on the column and in solution. […] The Kd for the ATP-agarose complex is an upper estimate, because the fraction of bound ATP that is accessible to the RNA is not known. The solution Kd for adenosine was similar to that of ATP (5-8 μM), but the Kd for dATP was not measurable (>1 mM). The Kd of ATP-40-1 for its ligand dropped to 2 μM when the Mg^+2 concentration was raised from 5 to 20 mM. Changing the base pair U18-A33 to C-G, as found in most of the clones initially selected, further decreased the Kd to 0.7 μM. At almost saturating concentrations of ATP (50 μM), the RNA bound ~0.7 equivalents of ATP. The RNA likely binds its ligands with a stoichiometry of unit.

In assay [5] the target is ATP-40-1 RNA variant, base pair U18-A33 changed to C-G. The experiment in a line: Kd of ATP aptamer variant. It counts as binding. As to conditions: further decrease after raising Mg+2 to 20 mM. As to the method: as §3
The target in assay [6] is ATP-binding RNA clone 3 (C8-ATP-3, full-length 164-nucleotide RNA). As to the kind of experiment: binding of individual eighth-cycle clones to ATP-agarose. As to conditions: read-out: dissociation constant (Kd). Here is the method: (§4) A chemically synthesized pool of DNA molecules containing a central region of 120 random nucleotides 5 flanked by constant regions used as primer binding sites was PCR-amplified and transcribed in vitro by T7 RNA polymerase in the presence of [α-^32 P][…]. RNA was ethanol-precipitated and unincorporated nucleotides removed by Sephadex-G50 chromatography. Following a brief incubation at 65° C. in binding buffer (300 mM NaCl, 20 Mm Tris, pH 7.6, 5 mM MgCl2), the RNA was cooled to room temperature before being loaded onto a 1-ml ATP agarose affinity column. […] After washing with 6 column-volumes of binding buffer, bound RNAs were eluted with 3 column-volumes of binding buffer containing 4 mM ATP, then concentrated by precipitation with ethanol. For the first three cycles, an agarose pre-column was used to prevent enrichment of the RNA pool with agarose-binding RNAs, and bound RNAs were eluted with 5 mM EDTA in water rather than affinity-eluted with ATP. After reverse transcription and PCR amplification, DNA templates were transcribed and the resulting RNA was used in the next round of selection. RNA from the eighth round of selection was converted to cDNA, amplified as double-stranded DNA by PCR, digested with EcoR1 and BamHl gel-purified and cloned into the phage M13 based vector pGem3Z (Promega, Madison, Wis.).
(§5) Thirty-nine clones from the eighth cycle RNA population were sequenced seventeen different sequences were found. Of these, the most abundant sequence (C8-ATP-3) occurred 14 times, and 12 sequences occurred just once. […] Clones 2, 3, 8, 15, and 19 were individually tested for binding to ATP-agarose.

Assay [7] addresses ATP-binding RNA clone 19 (C8-ATP series, eighth cycle RNA population). The description is as above. As to conditions: read-out: dissociation constant (Kd). Here is the method:
as §4, §5

Assay [8] has as its target ATP-binding RNA clone 8 (C8-ATP series, eighth cycle RNA population). The assay is described as above. To be noted: read-out: dissociation constant (Kd). Here is the method:
as §4, §5

For assay [9], the target named is ATP-binding RNA clone 2 (C8-ATP series, eighth cycle RNA population). The assay is described as above. To be noted: read-out: dissociation constant (Kd). As to the method:
as §4, §5

The test system of assay [10] is ATP-binding RNA clone 15 (C8-ATP-15). The description is as above. As to the method: as §4, §5
Assay [11] deals with Class III aptamer RNA (ATP aptamer region of Class III kinase ribozyme). The experiment in a line: binding of kinase-class aptamer region RNA to C-8 linked ATP agarose. To be noted: no detectable interaction with ATP agarose. The source says: (§6) Either the right or left hand stems of the Class II, VI and VII aptamer regions appear to be missing, and it seems likely that these molecules have found novel modes of binding their substrates. Using run-off transcription of synthetic DNA oligonucleotides (Milligan and Uhlenbeck, Methods Enzymol. 180:51, 1989) the RNAs corresponding to the Class I, III, IV, and V aptamer regions were produced. The Class IV aptamer RNA binds weakly to C-8 linked ATP agarose (Sassanfar and Szostak, supra), consistent with a molecule having a Kd for ATP in the range of 0.05-0.5 mM. […] Presumably, the corresponding classes of kinases have developed novel modes of binding ATP-γ-S.

For assay [12], the target named is Class I aptamer RNA (ATP aptamer region of Class I kinase ribozyme). Described as above. To be noted: no detectable interaction with ATP agarose.
Source text: as §6

Assay [13] deals with ATP-40-1 RNA (40-nucleotide ATP aptamer). The experiment in a line: equilibrium gel filtration (solution Kd). The assay is classed as binding. As to the method: as §3
In general terms: Size exclusion chromatography separates by hydrodynamic size, large species first.

For assay [14], the system named is BL2.8-7 self-biotinylating ribozyme (re-selected from BL8-6). The experiment in a line: self-biotinylation time course. It counts as biochemical. As to the method:
The rate of self-biotinylation was determined by a time course experiment. ^32 P-labelled RNA was first resuspended in incubation buffer (100 mM KCl, 10 mM Na-Hepes, pH 7.4, 5 mM MgCl2) and allowed to equilibrate for 10 minutes at room temperature. […] Samples were quenched and affinity purified as described in Haugland, Molecular Probes Handbook of Fluoprescent Probes and Research Chemicals. Aliquots were counted in a scintillation counter following ethanol precipitation (total RNA count) and following binding to streptavidin agarose (product RNA count); the ratio of these two counts is the fraction reacted. Optimizing enzymatic activity: It seemed likely that the original RNA pool from which the BL8-6 ribozyme was derived might not saturate the space of biotin-ligating ribozymes. […]
The background rate of guanosine alkylation by BIE was determined by two independent methods. […] To characterize the functional cores of the two molecules, we analyzed the sequences of active clones isolated from the two mutagenized RNA pools generated from the biotin aptamer and self-alkylating ribozyme sequences. […] Approximately thirty individual RNAs from each of these subcloned pools were sequenced and analyzed to determine which nucleotide positions were conserved and which pairs of nucleotides covaried to maintain Watson-Crick base pairing. […]

The subject of assay [15] is BL8-6 self-biotinylating ribozyme (SEQ ID NO: 91). The experiment in a line: self-biotinylation time course. The assay is classed as biochemical. As to conditions: in the presence of 200 μM BIE. Here is the method: The rate of self-biotinylation was determined by a time course experiment. ^32 P-labelled RNA was first resuspended in incubation buffer (100 mM KCl, 10 mM Na-Hepes, pH 7.4, 5 mM MgCl2) and allowed to equilibrate for 10 minutes at room temperature. 200 μM BIE was added to the mixture and aliquots were subsequently removed after 0 to 120 minutes of incubation. Samples were quenched and affinity purified as described in Haugland, Molecular Probes Handbook of Fluoprescent Probes and Research Chemicals. Aliquots were counted in a scintillation counter following ethanol precipitation (total RNA count) and following binding to streptavidin agarose (product RNA count); the ratio of these two counts is the fraction reacted. Optimizing enzymatic activity: It seemed likely that the original RNA pool from which the BL8-6 ribozyme was derived might not saturate the space of biotin-ligating ribozymes. To test the possibility that appropriate additional mutations to the BL8-6 sequence might increase its catalytic activity, a third RNA pool was generated based on its sequence but with non-wild-type nucleotides substituted at each position with 30% probability (FIG. 8D) (using methods described above). […] After eight rounds of selection (ending with a 1 minute incubation period at 10 μM BIE), active clones from the pool were sequenced and assayed for catalytic activity.

Where [16] appears, read: auto-thiophosphorylation, 6 ATP-γ-S concentrations.
The mark [17] stands for this setting: equilibrium gel filtration, 5 mM Mg, read-out: Kd (solution).

Regarding `Nc1ncnc2c1ncn2[C@@H]1O[C@H](COP(=O)(O)OP(=O)(O)OP(O)(O)=S)[C@@H](O)[C@H]1O` [ATP-γ-S], the kcat (as a rule, the maximal rate divided by the concentration of active sites) is 0.0005 ± 1.7e-05 s⁻¹ in assay [1]; 0.00333 ± 0.00033 s⁻¹ and 0.0055 ± 0.00033 s⁻¹ in assay [2] (setting [16]); “approximately 0.3 min^-1” in assay [2] (self-phosphorylation, approximate value); 0.0012 ± 8.3e-05 s⁻¹ and 0.00167 ± 0.000267 s⁻¹ in [3]. Moreover, the Km (commonly the substrate concentration at which the rate is half of its maximum) is 41 µM and 42 µM in [2] (setting [16]); 50 µM and 58 µM in assay [3]. The kcat/Km – broadly, the turnover number divided by the Michaelis constant – in assay [2] (self-phosphorylation) amounted to 100 M⁻¹ s⁻¹.
With `Nc1ncnc2c1ncn2[C@@H]1O[C@H](COP(=O)(O)OP(=O)(O)OP(=O)(O)O)[C@@H](O)[C@H]1O` [ATP], the dissociation constant Kd (in general, the constant that tells how readily two partners part at equilibrium) is approximately 14 µM in assay [4]; 0.7 µM in assay [5]; less than 50 µM in assay [6]; less than 50 µM in assay [7]; less than 50 µM in [8]; less than 50 µM in assay [9]. In addition, the equilibrium dissociation constant (Kd) in assay [11] was more than 500 µM; in assay [12], more than 500 µM; in assay [13] (Mg+2 concentration raised from 5 to 20 mM, method not stated, read-out: Kd) it was 2 µM; in [13] (setting [17]) it was 6 to 8 µM. For the same compound, the “estimated Kd” value in assay [10] is listed as ~ 250 μM.
As to `O=C(CI)NCCNC(=O)CCCC[C@@H]1SC[C@@H]2NC(=O)N[C@@H]21` [BIE, N-biotinoyl-N'-iodoacetylethylenediamine], the values for the rate of self-biotinylation in [14] (in the presence of 100 μM BIE) and in assay [15] were 0.05 min⁻¹ and 0.001 min⁻¹, respectively. The catalyzed biotinylation rate entry in assay [14] (time course experiment) is “approximately 8 s^-1 M^-1”.
Turning to `Nc1ncnc2c1ncn2[C@@H]1O[C@H](CO)[C@@H](O)[C@H]1O` [adenosine], in assay [13] (setting [17]), the Kd lay within 5 to 8 µM.
As for `Nc1ncnc2c1ncn2[C@H]1C[C@H](O)[C@@H](COP(=O)(O)OP(=O)(O)OP(=O)(O)O)O1` [dATP], the Kd in [13] (not measurable, read-out: Kd (solution)) is more than 1000 µM.
